Measured values from patent publication US11780832B2, “Lactivicin compounds, their preparation and use as antibacterial agents” (priority 2021, dated 2023).
Converted amounts (≈) assume the structure as drawn.

Legend:
Assay type in all cases: cell-based
[1] = test system: Escherichia coli Empty pSMART plasmid; assay: MIC, CLSI broth microdilution
Summary of the method: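 Broth microdilution following CLSI guidance was used to obtain MICs. Bacteria, recovered through two passages from skim-milk stocks held at −80 °C, were exposed to doubling dilutions of compound (final 16-0.0125 μg/mL).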

[2] = test system: Escherichia coli Isogenic TEM-10; assay: MIC, CLSI broth microdilution
Summary of the method: (§1)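 Inhibitory concentrations were measured in broth following CLSI microdilution rules. Test organisms, each with known resistance determinants, were inoculated at a final 5×10^5 CFU/mL into wells holding compound at final concentrations from 16 down to 0.0125 μg/mL.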

[3] = test system: Escherichia coli Isogenic TEM-26; assay: MIC, CLSI broth microdilution
Summary of the method: as §1

[4] = test system: Citrobacter freundii species complex Elevated AmpC; assay: MIC against Elevated AmpC producing strains, compound alone; conditions: row r16
Procedure: (§2) Gram-negative and Gram-positive bacterial strains used during the in vitro minimum inhibitory concentration (MIC) determination were obtained either from the American Type Culture Collection (ATCC) or from clinical specimens. All strains were characterized genotypically and the respective antibiotic resistance markers for each strain were identified.
(§3) Isolates were sub-cultured onto appropriate media and stocked in skim milk at −80° C. Following two subcultures from frozen stock, in vitro antimicrobial susceptibility testing was performed using the Clinical and Laboratory Standards Institute (CLSI) broth microdilution method. Briefly, fresh cultures were suspended in culture media to give a final stock inoculum size of 5×10^7 colony forming units per milliliter of broth (CFU/mL). Test compounds were prepared at a stock solution concentration equal to 128 μg/mL, then diluted to give a final an initial working concentration of 32 μg/mL. 100 μL of the stock solutions were added to the first wells in a 96-well plate and were then diluted using a 2-fold dilution method to give a range of 32-0.025 μg/mL. 100 μL of the bacterial suspensions were then added to the 96-well plates to give a final working inoculum size of 5×10^5 CFU/mL. The final compound concentration range was 16-0.0125 μg/mL. […] MICs for comparator agents were determined using custom-designed, in-house prepared 96-well broth microdilution panels.

[5] = test system: Enterobacter cloacae species complex Elevated AmpC; assay: as above
Procedure: as §2, §3

[6] = test system: Escherichia coli Elevated AmpC; assay: as above
Procedure: as §2, §3

[7] = test system: Enterobacter cloacae species complex Elevated AmpC; assay: Synergistic activity: MIC in the presence of Avibactam
Procedure: as §3
(§4) The same method used to test the activity of the claimed compounds was used to determine their synergistic activity when combined with a β-lactamase inhibitor except that either a fixed concentration or fixed ratio of a β-lactamase inhibitor was added to the 96-well plates prior to adding the bacteria cultures. Synergistic activity was defined as the reduction of MIC of a given compound when tested using the β-lactamase inhibitor versus testing the compound in the absence of a β-lactamase inhibitor.

[8] = test system: Escherichia coli Elevated AmpC; assay: as above
Procedure: as §3, §4

[9] = test system: Proteus mirabilis CMY-DHA; assay: as above; conditions: row r36, in the presence of Avibactam @ 4 μg/mL
Procedure: as §3, §4

[10] = in the presence of Avibactam @ 4 μg/mL
[11] = strain of row r7, in the presence of Avibactam @ 4 μg/mL
[12] = strain of row r20, in the presence of Avibactam @ 4 μg/mL
[13] = strain of row r10, in the presence of Avibactam @ 4 μg/mL
[14] = strain of row r11, in the presence of Avibactam @ 4 μg/mL
[15] = strain of row r12, in the presence of Avibactam @ 4 μg/mL
[16] = strain of row r13, in the presence of Avibactam @ 4 μg/mL
[17] = strain of row r14, in the presence of Avibactam @ 4 μg/mL
[18] = strain of row r15, in the presence of Avibactam @ 4 μg/mL

CC(C)(O/N=C(\C(=O)N[C@@H]1C(=O)N2C(C(=O)[O-])=C(C[n+]3ccccc3)CS[C@H]12)c1csc(N)n1)C(=O)O [Ceftazidime, ceftazidime, reference compound]
MIC [1]: 0.25 mg/L (≈ 0.457 µM)
MIC [2]: > 32 mg/L
MIC [3]: > 32 mg/L
MIC [4]: > 32 mg/L
MIC [5]: 16 mg/L (≈ 29.3 µM)
MIC ([5]; strain of row r7): > 32 mg/L
MIC ([5]; strain of row r20): 16 mg/L (≈ 29.3 µM)
MIC ([6]; strain of row r10): 8 mg/L (≈ 14.6 µM)
MIC ([6]; strain of row r11): 8 mg/L (≈ 14.6 µM)
MIC ([6]; strain of row r12): 8 mg/L (≈ 14.6 µM)
MIC ([6]; strain of row r13): 4 mg/L (≈ 7.32 µM)
MIC ([6]; strain of row r14): 16 mg/L (≈ 29.3 µM)
MIC ([6]; strain of row r15): 16 mg/L (≈ 29.3 µM)
MIC [7, 10]: 0.25 mg/L
MIC [7, 11]: 0.5 mg/L
MIC [7, 12]: 0.03 mg/L
MIC [8, 13]: 0.12 mg/L
MIC [8, 14]: 0.06 mg/L
MIC [8, 15]: 0.12 mg/L
MIC [8, 16]: 0.12 mg/L
MIC [8, 17]: 0.12 mg/L
MIC [8, 18]: 0.5 mg/L
MIC [9]: 0.12 mg/L

Nc1nc(/C(=N/OC2(C(=O)O)CCOCC2)C(=O)N[C@H]2CON(C3(C(=O)O)C[C@H](N4C(=O)c5cc(O)c(O)nc5C4=O)C(=O)O3)C2=O)cs1 (stereo partly drawn) [Cmpd 26, 4-({(Z)-[1-(2-amino-1,3-thiazol-4-yl)-2-({(4S)-2-[(4S)-2-carboxy-4-(2,3-dihydroxy-5,7-dioxo-5,7-dihydro-6H-pyrrolo[3,4-b]pyridin-6-yl)-5-oxooxolan-2-yl]-3-oxo-1,2-oxazolidin-4-yl}amino)-2-oxoethylidene]amino}oxy)oxane-4-carboxylic acid]
MIC [2]: 0.03 mg/L (≈ 0.0425 µM)
MIC [4]: 1 mg/L (≈ 1.42 µM)
MIC [5]: 2 mg/L (≈ 2.83 µM)
MIC ([5]; strain of row r7): 4 mg/L (≈ 5.67 µM)
MIC ([5]; strain of row r20): 1 mg/L (≈ 1.42 µM)
MIC ([6]; strain of row r10): 0.06 mg/L (≈ 0.085 µM)
MIC ([6]; strain of row r11): 0.5 mg/L (≈ 0.709 µM)
MIC ([6]; strain of row r12): 2 mg/L (≈ 2.83 µM)
MIC ([6]; strain of row r13): 0.06 mg/L (≈ 0.085 µM)
MIC ([6]; strain of row r14): 0.12 mg/L (≈ 0.17 µM)
MIC ([6]; strain of row r15): 0.5 mg/L (≈ 0.709 µM)
MIC [7, 10]: 0.25 mg/L
MIC [7, 11]: 0.5 mg/L
MIC [7, 12]: <=0.008 μg/mL
MIC [8, 13]: 0.015 mg/L
MIC [8, 14]: 0.12 mg/L
MIC [8, 15]: 0.25 mg/L
MIC [8, 16]: <=0.008 μg/mL
MIC [8, 17]: 0.015 mg/L
MIC [8, 18]: 0.12 mg/L
MIC [9]: 0.06 mg/L

Nc1nc(/C(=N/OC2(C(=O)O)CC2)C(=O)N[C@H]2CON(C3(C(=O)O)C[C@H](N4C(=O)c5cc(O)c(O)cc5C4=O)C(=O)O3)C2=O)ns1 (stereo partly drawn) [Cmpd 18, (4S)-2-[(4S)-4-{[(2Z)-2-(5-amino-1,2,4-thiadiazol-3-yl)-2-{[(1-carboxycyclopropyl)oxy]imino}acetyl]amino}-3-oxo-1,2-oxazolidin-2-yl]-4-(5,6-dihydroxy-1,3-dioxo-1,3-dihydro-2H-isoindol-2-yl)-5-oxooxolane-2-carboxylic acid]
MIC [1]: 0.0149 mg/L (≈ 0.0225 µM)
MIC [4]: 1 mg/L (≈ 1.51 µM)
MIC [5]: 1 mg/L (≈ 1.51 µM)
MIC ([5]; strain of row r7): 4 mg/L (≈ 6.05 µM)
MIC ([5]; strain of row r20): 0.25 mg/L (≈ 0.378 µM)
MIC ([6]; strain of row r10): 0.03 mg/L (≈ 0.0454 µM)
MIC ([6]; strain of row r11): 0.25 mg/L (≈ 0.378 µM)
MIC ([6]; strain of row r12): 0.5 mg/L (≈ 0.756 µM)
MIC ([6]; strain of row r13): 0.06 mg/L (≈ 0.0907 µM)
MIC ([6]; strain of row r14): 0.06 mg/L (≈ 0.0907 µM)
MIC ([6]; strain of row r15): 0.25 mg/L (≈ 0.378 µM)
MIC [7, 10]: 0.06 mg/L
MIC [7, 11]: 0.12 mg/L
MIC [7, 12]: <=0.008 μg/mL
MIC [8, 13]: <=0.008 μg/mL
MIC [8, 14]: <=0.008 μg/mL
MIC [8, 15]: 0.06 mg/L
MIC [8, 16]: <=0.008 μg/mL
MIC [8, 17]: <=0.008 μg/mL
MIC [8, 18]: 0.06 mg/L
MIC [9]: 0.06 mg/L

Nc1nc(/C(=N/OC2(C(=O)O)CC2)C(=O)N[C@H]2CON(C3(C(=O)O)C[C@H](N4Cc5cc(O)c(O)cc5C4=O)C(=O)O3)C2=O)cs1 (stereo partly drawn) [Cmpd 28, (4S)-2-[(4S)-4-{[(2Z)-2-(2-amino-1,3-thiazol-4-yl)-2-{[(1-carboxycyclopropyl)oxy]imino}acetyl]amino}-3-oxo-1,2-oxazolidin-2-yl]-4-(5,6-dihydroxy-1-oxo-1,3-dihydro-2H-isoindol-2-yl)-5-oxooxolane-2-carboxylic acid]
MIC [2]: 0.03 mg/L (≈ 0.0464 µM)
MIC [3]: 0.03 mg/L (≈ 0.0464 µM)
MIC [4]: 1 mg/L (≈ 1.55 µM)
MIC [5]: 2 mg/L (≈ 3.09 µM)
MIC ([5]; strain of row r7): 8 mg/L (≈ 12.4 µM)
MIC ([5]; strain of row r20): 1 mg/L (≈ 1.55 µM)
MIC ([6]; strain of row r10): 0.06 mg/L (≈ 0.0928 µM)
MIC ([6]; strain of row r11): 0.5 mg/L (≈ 0.773 µM)
MIC ([6]; strain of row r12): 1 mg/L (≈ 1.55 µM)
MIC ([6]; strain of row r13): 0.25 mg/L (≈ 0.387 µM)
MIC ([6]; strain of row r14): 0.12 mg/L (≈ 0.186 µM)
MIC ([6]; strain of row r15): 1 mg/L (≈ 1.55 µM)
MIC [7, 10]: 0.25 mg/L
MIC [7, 11]: 0.5 mg/L
MIC [7, 12]: 0.015 mg/L
MIC [8, 13]: 0.015 mg/L
MIC [8, 14]: 0.06 mg/L
MIC [8, 15]: 0.03 mg/L
MIC [8, 16]: <=0.008 μg/mL
MIC [8, 17]: 0.06 mg/L
MIC [8, 18]: 0.25 mg/L
MIC [9]: 0.03 mg/L
